Laboratory results published in article PMC10130320, “Extracellular enzymes secreted in the mycelial block of Lentinula edodes during hyphal growth” (AMB Express, 2023).
Counter-ions that a name gives are not always drawn.

Legend:
Lcc13 = target: T1, Lcc13 (Lentinula edodes, UniProt A0A0P0ZBE8); assay: ABTS oxidation, absorbance at […] nm; type: biochemical; details: 1.25 mM ABTS; 50 mM sodium citrate pH 3.0; partially purified fraction P2-2
T1 construct: native, partially purified from sawdust medium (fraction P2-2), 61 kDa on SDS-PAGE
T1 sequence (A0A0P0ZBE8 20-520): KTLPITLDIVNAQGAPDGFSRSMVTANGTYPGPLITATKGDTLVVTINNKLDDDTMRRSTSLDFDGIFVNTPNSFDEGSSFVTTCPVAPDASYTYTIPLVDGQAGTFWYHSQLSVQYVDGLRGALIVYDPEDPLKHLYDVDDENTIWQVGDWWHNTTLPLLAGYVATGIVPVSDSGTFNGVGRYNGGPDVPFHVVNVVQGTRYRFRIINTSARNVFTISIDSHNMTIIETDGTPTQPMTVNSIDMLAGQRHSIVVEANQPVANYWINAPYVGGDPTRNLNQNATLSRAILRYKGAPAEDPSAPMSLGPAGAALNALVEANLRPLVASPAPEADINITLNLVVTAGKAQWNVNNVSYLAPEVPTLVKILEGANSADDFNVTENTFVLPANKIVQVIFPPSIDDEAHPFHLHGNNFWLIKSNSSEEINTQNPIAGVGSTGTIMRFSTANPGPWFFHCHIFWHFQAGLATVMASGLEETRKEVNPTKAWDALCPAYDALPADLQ

Lcc5 = target: T2, Lcc5 (Lentinula edodes, UniProt R9WU11); assay: ABTS oxidation, absorbance at […] nm; type: biochemical; details: 1.25 mM ABTS; 50 mM sodium citrate pH 3.0; partially purified fraction P1-1
T2 construct: native, partially purified from sawdust medium (fraction P1-1), 68 kDa on SDS-PAGE
T2 sequence (R9WU11 22-515): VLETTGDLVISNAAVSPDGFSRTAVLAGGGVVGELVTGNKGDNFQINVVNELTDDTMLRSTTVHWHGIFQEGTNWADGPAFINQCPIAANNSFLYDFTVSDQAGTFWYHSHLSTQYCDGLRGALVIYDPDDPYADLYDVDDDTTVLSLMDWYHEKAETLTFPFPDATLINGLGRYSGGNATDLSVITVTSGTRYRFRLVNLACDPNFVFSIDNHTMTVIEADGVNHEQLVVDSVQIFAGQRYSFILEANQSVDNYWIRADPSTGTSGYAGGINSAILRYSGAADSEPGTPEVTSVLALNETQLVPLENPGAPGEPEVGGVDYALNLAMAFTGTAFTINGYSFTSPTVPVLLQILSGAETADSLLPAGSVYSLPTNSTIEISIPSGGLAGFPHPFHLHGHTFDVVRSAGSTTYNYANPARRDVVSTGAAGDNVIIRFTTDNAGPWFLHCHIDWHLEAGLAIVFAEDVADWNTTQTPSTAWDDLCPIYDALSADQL

SMILES: CCn1c(=NN=c2sc3cc(S(=O)(=O)O)ccc3n2CC)sc2cc(S(=O)(=O)O)ccc21 [ABTS, 2,2-azino-bis (3-ethylbenzothiazoline-6-sulfonic acid) diammonium salt]
- ABTS oxidation, absorbance at 420 nm (Lcc13): the Lcc purification was performed based on the enzymatic activity for ABTS
- ABTS oxidation, absorbance at 420 nm (Lcc5): the Lcc purification was performed based on the enzymatic activity for ABTS
